Key:
[1] = test system: MIN-6 β cells; assay: Confocal imaging of ZIGIR-labeled live β cells; type: cell-based, mouse
Method: To assess ZIGIRs' ability for imaging granular Zn^2+ in living cells, an insulin secreting β cell (MIN-6 cell) was labeled with ZIGIRs. After dye loading (0.5 μM for 15 min) and washing, cells were imaged by confocal laser scanning microscopy (CLSM). […] After raising cellular Zn^2+ level by adding a Zn^2+ ionophore (pyrithione, 10 μM) and Zn^2+ (20 μM), a drastic enhancement of ZIGIR-2 signal was observed. […] Subsequent washout of zinc/pyrithione and addition of a Zn^2+ chelator TPEN depleted cellular Zn^2+ activity and dampened ZIGIR-2 intensity to nearly the background level (FIGS. 6D & 6E). Overall ZIGIR-2 intensity increased about 12-fold going from the low Zn^2+ (TPEN) to the high Zn^2+ state (Zn^2+/pyrithione), with a cell-to-cell variation of 12.04±4.8 fold (mean±SD, N=20 cells).
MIN-6 β cells were cultured as previously described (Li et al., 2011). HEK293 cells were cultured in DMEM medium supplemented with 10% FBS and 1% Penicillin/Streptomycin. T47D cells were cultured in RPMI-1640 medium supplemented with 10% FBS, 0.5% non-essential amino acids, 1 mM sodium pyruvate, 10 μg/mL geneticin and 0.01 mg/mL insulin. H1299 cells were cultured in RPMI-1640 medium supplemented with 10% FBS. All cells were maintained at 37° C. with 5% CO2. For cell imaging, cells were seeded in 35-mm petri dishes with glass bottoms (MatTek) and cultured for ˜24 hours to reach ˜50% confluence. Prior to labeling, cells were washed with a secretion assay buffer (SAB) containing 114 mM NaCl, 4.7 mM KCl, 1.2 mM KH2PO4, 2.5 mM CaCl2, 1.16 mM MgSO4, 3 mM glucose, and 20 mM Hepes (pH 7.4). Cells were then incubated with ZIGIRs (0.5-1 μM) in SAB at 37° C. for 15 min, and washed with SAB before imaging on a Zeiss LSM 780 confocal microscope using 561 nm laser for exciting ZIGIR-2 (Em 570-650 nm) and 514 nm laser for exciting ZIGIR-1 (Em 516-650 nm). LysoTracker Green (ThermoFisher Scientific) was used at 0.4 μM to label acidic organelles and was added to cells <5 min before imaging. […] ZIGIR colocalization with LysoTracker Green was analyzed and quantified with JACoP plugin of ImageJ.

[2] = Photochemical characterization of ZIGIRs in vitro (absorption, emission, quantum yield); type: physicochemical; settings: for ε (extinction coefficient): in M-1·cm-1 (unit assumed); for ϕfl × ε (fluorescence brightness): in M^-1 cm^-1 (unit assumed)
Method: UV-Vis spectra were recorded in a 1-cm path quartz cell on a Shimadzu 2401 PC spectrometer. Fluorescence excitation and emission spectra were recorded on a Fluorolog 3 spectrometer (Jobin-Yvon Horiba, Edison, N.J.). Zinc titration was performed by adding ZIGIRs (0.5 μM final concentration) to buffered Zn^2+ solutions containing 100 mM HEPES (pH 7.4). Nitrilotriacetic acid (NTA, 10 mM) and varying concentrations of ZnSO4 (0-9 mM) were mixed to reach free Zn^2+ concentrations between 0.1 nM and 40 nM (Li et al., 2011). Zn^2+ concentrations above 40 nM were controlled by iminodiacetate (IDA, 10 mM) and varying amounts of ZnSO4 (0-9.7 mM) in 100 mM HEPES (pH 7.4; Sasaki et al., 2011). To determine Zn^2+ binding dissociation constants (Kd(Zn^2+)), the Zn^2+ titration data were fitted to the least square exponential equation (Prism 7). Fluorescence quantum yields of ZIGIRs at pH 7.5 were determined using rhodamine 6G as the reference (Φfl=0.94 in MeOH; Magde et al., 2002). An example in shown FIGS. 11A0B. To examine the pH sensitivity of ZIGIRs, the fluorescence emission spectra was recorded from pH 3-9.4 in either nominally Zn^2+-free solutions containing 5 mM iminodiacetate or in 25 μM ZnSO4 solutions. The pH was controlled with 10 mM pH buffers including chloroacetic acid (pH 3.1), acetate (pH 4.1 and 5.0), 2-morpholinoethanesulfonic acid (MES, pH 6.14), HEPES (pH 7.5) and N-cyclohexyl-2-aminoethanesulfonic acid (CHES, pH 9.4).

CN(C)c1ccc2c(-c3ccc(NCCN(CCc4ccccn4)Cc4ccccn4)cc3C(=O)[O-])c3ccc(=[N+](C)C)cc-3oc2c1 [ZIGIR-2]
stability of intensity of labeled granules on repetitive imaging ([1]; MIN6 cells, imaged every 5 sec over ~30 min): remains stable | increase of intensity from low Zn^2+ (TPEN) to high Zn^2+ state (Zn^2+/pyrithione) ([1]; MIN-6 cells, overall): about 12 fold | increase of intensity from TPEN to Zn^2+/pyrithione, cell-to-cell variation ([1]; mean±SD, N=20 cells): 12.04±4.8 fold | absorption maximum [2]: around 555 nm | emission maximum [2]: ~580 nm | λabd^max ([2]; Zn^2+ bound): 549 nm | λem^max ([2]; Zn^2+ bound): 580 nm | ϕfl (fluorescence quantum yield) ([2]; Zn^2+ bound): 0.26 | ε (extinction coefficient) ([2]; Zn^2+ bound): 93,600 | ϕfl × ε (fluorescence brightness) ([2]; Zn^2+ bound): 24,336 | λabd^max ([2]; Zn^2+ free): 546 nm | λem^max ([2]; Zn^2+ free): 572 nm | ϕfl (fluorescence quantum yield) ([2]; Zn^2+ free): 0.008 | ε (extinction coefficient) ([2]; Zn^2+ free): 88,400 | ϕfl × ε (fluorescence brightness) ([2]; Zn^2+ free): 707
